Reference: ChEMBL document CHEMBL5528002, “Identification of selective 5-LOX and FLAP inhibitors as novel anti-inflammatory agents by ligand-based virtual screening” (Eur J Med Chem, 2024)
Activity calls are given as the source filed them. No cut-off for these calls is given here.

Tests used:
[1] = test system: Macrophage cell line; experiment: Effect on lipid mediator formation in human M2-like phenotype MDM cells by measuring LTB4 formation at 10 uM pre-incubated for 15 mins followed by SACM stimulation and measured after 90 mins by UPLC-MS/MS analysis relative to control; assay type: functional; conditions: time 105 min, 1.75 h
[2] = test system: Macrophage cell line; experiment: Effect on lipid mediator formation in human M2-like phenotype MDM cells by measuring 5S,6R-diHETE formation at 10 uM pre-incubated for 15 mins followed by SACM stimulation and measured after 90 mins by UPLC-MS/MS analysis relative to control; assay type: functional; conditions: time 105 min, 1.75 h
[3] = test system: Macrophage cell line; experiment: Effect on lipid mediator formation in human M1-like phenotype MDM cells by measuring 5,15-diHETE formation at 10 uM pre-incubated for 15 mins followed by SACM stimulation and measured after 90 mins by UPLC-MS/MS analysis relative to control; assay type: functional; conditions: time 105 min, 1.75 h
[4] = test system: Macrophage cell line; experiment: Effect on lipid mediator formation in human M2-like phenotype MDM cells by measuring 14-HDHA formation at 10 uM pre-incubated for 15 mins followed by SACM stimulation and measured after 90 mins by UPLC-MS/MS analysis relative to control; assay type: functional; conditions: time 105 min, 1.75 h
[5] = Antioxidant activity assessed as DPPH radical scavenging activity at 1 uM incubated for 30 min by DPPH assay; assay type: functional
[6] = test system: Macrophage cell line; experiment: Effect on lipid mediator formation in human M1-like phenotype MDM cells by measuring 5S,6R-diHETE formation at 10 uM pre-incubated for 15 mins followed by SACM stimulation and measured after 90 mins by UPLC-MS/MS analysis (reference value: 226 +/- 78 pg/ml); assay type: functional; conditions: time 105 min, 1.75 h
[7] = test system: Macrophage cell line; experiment: Effect on lipid mediator formation in human M1-like phenotype MDM cells by measuring 5-HETE formation at 10 uM pre-incubated for 15 mins followed by SACM stimulation and measured after 90 mins by UPLC-MS/MS analysis (reference value: 5357 +/- 1561 pg/ml); assay type: functional; conditions: time 105 min, 1.75 h
[8] = test system: Macrophage cell line; experiment: Effect on lipid mediator formation in human M1-like phenotype MDM cells by measuring 7-HDHA formation at 10 uM pre-incubated for 15 mins followed by SACM stimulation and measured after 90 mins by UPLC-MS/MS analysis (reference value: 118 +/- 14 pg/ml); assay type: functional; conditions: time 105 min, 1.75 h
[9] = test system: Macrophage cell line; experiment: Effect on lipid mediator formation in human M2-like phenotype MDM cells by measuring 17-HDHA formation at 10 uM pre-incubated for 15 mins followed by SACM stimulation and measured after 90 mins by UPLC-MS/MS analysis relative to control; assay type: functional; conditions: time 105 min, 1.75 h
[10] = test system: Macrophage cell line; experiment: Effect on lipid mediator formation in human M2-like phenotype MDM cells by measuring t-LTB4 formation at 10 uM pre-incubated for 15 mins followed by SACM stimulation and measured after 90 mins by UPLC-MS/MS analysis relative to control; assay type: functional; conditions: time 105 min, 1.75 h
[11] = test system: Macrophage cell line; experiment: Effect on lipid mediator formation in human M1-like phenotype MDM cells by measuring TXB2 formation at 10 uM pre-incubated for 15 mins followed by SACM stimulation and measured after 90 mins by UPLC-MS/MS analysis (reference value: 8866 +/- 2561 pg/ml); assay type: functional; conditions: time 105 min, 1.75 h
[12] = test system: Macrophage cell line; experiment: Effect on lipid mediator formation in human M2-like phenotype MDM cells by measuring 7-HDHA formation at 10 uM pre-incubated for 15 mins followed by SACM stimulation and measured after 90 mins by UPLC-MS/MS analysis (reference value: 315 +/- 55 pg/ml); assay type: functional; conditions: time 105 min, 1.75 h
[13] = test system: Macrophage cell line; experiment: Effect on lipid mediator formation in human M2-like phenotype MDM cells by measuring PGD2 formation at 10 uM pre-incubated for 15 mins followed by SACM stimulation and measured after 90 mins by UPLC-MS/MS analysis relative to control; assay type: functional; conditions: time 105 min, 1.75 h
[14] = target: T1, Polyunsaturated fatty acid 5-lipoxygenase (Homo sapiens, UniProt P09917); experiment: Inhibition of 5-LOX in human Neutrophil using arachidonic acid as substrate preincubated with compound for 15 mins followed by substrate and A23187 addition measured after 10 mins by RP-HPLC analysis; assay type: cell-based
T1 sequence (P09917 whole entry): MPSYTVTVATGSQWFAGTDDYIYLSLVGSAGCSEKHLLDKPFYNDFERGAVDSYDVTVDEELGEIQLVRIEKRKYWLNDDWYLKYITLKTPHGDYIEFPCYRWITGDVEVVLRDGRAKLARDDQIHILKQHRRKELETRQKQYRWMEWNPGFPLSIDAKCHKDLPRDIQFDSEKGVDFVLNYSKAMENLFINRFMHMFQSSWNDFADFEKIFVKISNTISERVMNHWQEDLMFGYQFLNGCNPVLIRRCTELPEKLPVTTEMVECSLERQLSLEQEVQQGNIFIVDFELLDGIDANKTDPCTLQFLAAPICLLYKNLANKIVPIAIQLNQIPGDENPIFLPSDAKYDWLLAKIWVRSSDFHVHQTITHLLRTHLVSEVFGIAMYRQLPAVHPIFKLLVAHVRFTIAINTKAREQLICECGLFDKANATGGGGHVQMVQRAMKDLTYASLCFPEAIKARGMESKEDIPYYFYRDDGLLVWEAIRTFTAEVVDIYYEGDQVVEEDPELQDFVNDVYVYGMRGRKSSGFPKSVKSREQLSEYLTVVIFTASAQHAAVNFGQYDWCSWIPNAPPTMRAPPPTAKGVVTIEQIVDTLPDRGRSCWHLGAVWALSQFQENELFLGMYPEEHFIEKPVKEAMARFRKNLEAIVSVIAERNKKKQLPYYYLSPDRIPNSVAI

[15] = test system: Macrophage cell line; experiment: Effect on lipid mediator formation in human M2-like phenotype MDM cells by measuring EPA formation at 10 uM pre-incubated for 15 mins followed by SACM stimulation and measured after 90 mins by UPLC-MS/MS analysis (reference value: 23813 +/- 1138 pg/ml); assay type: functional; conditions: time 105 min, 1.75 h
[16] = test system: Macrophage cell line; experiment: Effect on lipid mediator formation in human M2-like phenotype MDM cells by measuring 12-HETE formation at 10 uM pre-incubated for 15 mins followed by SACM stimulation and measured after 90 mins by UPLC-MS/MS analysis (reference value: 3325 +/- 789 pg/ml); assay type: functional; conditions: time 105 min, 1.75 h
[17] = test system: Macrophage cell line; experiment: Effect on lipid mediator formation in human M1-like phenotype MDM cells by measuring 5S,6R-diHETE formation at 10 uM pre-incubated for 15 mins followed by SACM stimulation and measured after 90 mins by UPLC-MS/MS analysis relative to control; assay type: functional; conditions: time 105 min, 1.75 h
[18] = Antioxidant activity assessed as DPPH radical scavenging activity at 10 uM incubated for 30 min by DPPH assay; assay type: functional
[19] = test system: Macrophage cell line; experiment: Effect on lipid mediator formation in human M2-like phenotype MDM cells by measuring DHA formation at 10 uM pre-incubated for 15 mins followed by SACM stimulation and measured after 90 mins by UPLC-MS/MS analysis relative to control; assay type: functional; conditions: time 105 min, 1.75 h
[20] = test system: Macrophage cell line; experiment: Effect on lipid mediator formation in human M2-like phenotype MDM cells by measuring 12-HEPE formation at 10 uM pre-incubated for 15 mins followed by SACM stimulation and measured after 90 mins by UPLC-MS/MS analysis relative to control; assay type: functional; conditions: time 105 min, 1.75 h
[21] = test system: Macrophage cell line; experiment: Effect on lipid mediator formation in human M2-like phenotype MDM cells by measuring MaR2 formation at 10 uM pre-incubated for 15 mins followed by SACM stimulation and measured after 90 mins by UPLC-MS/MS analysis relative to control; assay type: functional; conditions: time 105 min, 1.75 h

IC50 [14]	SMILES	Activity [1]	Activity [2]	Activity [3]	Activity [4]	Activity [5]	Activity [6]	Activity [7]	Activity [8]	Activity [9]	Activity [10]	Activity [11]	Activity [12]	Activity [13]	Activity [15]	Activity [16]	Activity [17]	Activity [18]	Activity [19]	Activity [20]	other results
2100 nM	Oc1ccc(CCC2CCC(c3ccc(O)cc3)CO2)cc1 (configuration not stated)	14%	7%	30%	139%	inactive	11 pg/mL	695 pg/mL	45 pg/mL	149%	20%	8319 pg/mL	364 pg/mL	131%	28427 pg/mL	4047 pg/mL	5%	inactive	107%	128%	Activity [21]: 191%
900 nM	COc1ccc(C2=C/C(=C/c3ccc(O)cc3O)C(=O)O2)cc1	4%	4%	13%	179%	inactive	12 pg/mL	361 pg/mL	36 pg/mL	173%	11%	8338 pg/mL	383 pg/mL	201%	24465 pg/mL	3796 pg/mL	5%	inactive	106%	144%	Activity [21]: 219%
